Here are results for two compounds from PubChem BioAssay AID1845211 (Molecular Pharmacology Branch, DTP, NCI, 2023).

The structures appear in SMILES notation. Values joined by “and” are separate entries in the source; they are usually repeats but may differ in a detail not shown here. Identical values can stand only once.

The experiment relates to NCI-H322M multicellular tumor spheroids, viability (% test/control). Nature of the experiment: Anticancer human tumor NCI-H322M cell line growth inhibition.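 On viability, T/C: spheroids exposed to compound for seven days before readout; 100% = DMSO vehicle control wells.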 The note with it: for viability, T/C: stronger effect = lower value. A digest of the protocol: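 Complex spheroids of malignant cells with endothelial cells and mesenchymal stem cells; agents alone or combined, from near clinical Cmax (or 10 microM if unknown) down in half-log steps, 0.25% DMSO final.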

Usually IC50 stands for the concentration that inhibits the measured activity by half. By viability, T/C is commonly meant the ratio of treated to control. `[2H]c1nc(C)nc([2H])c1-c1cc(NC[C@@H](C)c2cccc3c(C(=O)NC)ccnc23)ncn1` + Cn1nnc2c(C(N)=O)ncn2c1=O: the IC50 was greater than 10 µM (curve of first compound, second compound 1 µM); greater than 10 µM (curve of first compound, second compound 3.16 µM); greater than 10 µM (curve of first compound, second compound 10 µM); greater than 10 µM (curve of first compound, second compound 31.6 µM); greater than 10 µM (curve of first compound, second compound 100 µM). Besides, the viability, T/C reads like this: (second compound 1 µM, first compound 0.0316 µM) 103%; (second compound 1 µM, first compound 0.1 µM) 101%; (second compound 1 µM, first compound 0.316 µM) 93%; (second compound 1 µM, first compound 1 µM) 116%; (second compound 1 µM, first compound 3.16 µM) 88.2%; (second compound 1 µM, first compound 10 µM) 84.4%. Further, the viability, T/C (second compound 3.16 µM, first compound 0.0316 µM) was 105%; the viability, T/C (second compound 3.16 µM, first compound 0.1 µM) was 92.1%; the viability, T/C (second compound 3.16 µM, first compound 0.316 µM) is 94%; the viability, T/C (second compound 3.16 µM, first compound 1 µM) was 97.5%; the viability, T/C (second compound 3.16 µM, first compound 3.16 µM) was 100%; the viability, T/C (second compound 3.16 µM, first compound 10 µM) is 99.3%. Further, the viability, T/C runs as follows: (second compound 10 µM, first compound 0.0316 µM) 85.5%; (second compound 10 µM, first compound 0.1 µM) 80.7%; (second compound 10 µM, first compound 0.316 µM) 77.9%; (second compound 10 µM, first compound 1 µM) 99.2%; (second compound 10 µM, first compound 3.16 µM) 107%; (second compound 10 µM, first compound 10 µM) 116%. In addition, the viability, T/C (second compound 31.6 µM, first compound 0.0316 µM) is 81.8%; the viability, T/C (second compound 31.6 µM, first compound 0.1 µM) is 89.3%; the viability, T/C (second compound 31.6 µM, first compound 0.316 µM) was 89.9%; the viability, T/C (second compound 31.6 µM, first compound 1 µM) was 91.9%; the viability, T/C (second compound 31.6 µM, first compound 3.16 µM) was 102%; the viability, T/C (second compound 31.6 µM, first compound 10 µM) is 99.5%. The viability, T/C by setting is: (second compound 100 µM, first compound 0.0316 µM) 96.8%; (second compound 100 µM, first compound 0.1 µM) 88.9%; (second compound 100 µM, first compound 0.316 µM) 100%; (second compound 100 µM, first compound 1 µM) 92.5%; (second compound 100 µM, first compound 3.16 µM) 91.8%; (second compound 100 µM, first compound 10 µM) 95.3%.
Take `CC(C)n1c(=O)n(C)c2cnc3cc(F)c(-c4ccc(OCCCN5CCCCC5)nc4)cc3c21`: the viability, T/C was 60.1% and 96% and 88.1% (compound 0.0316 µM); 80.2% and 82.2% and 112% (compound 0.1 µM); 70.4% and 78.7% and 83.2% (compound 0.316 µM); 73.2% and 102% and 112% (compound 1 µM); 76.8% and 85.2% and 87.2% (compound 3.16 µM); 56.8% and 79.3% and 85% (compound 10 µM). Further, under “curve of compound”, the IC50 is greater than 10 µM.
